Test results: PubChem BioAssay AID1745844 (Carcinogenic Potency Database (CPDB), 2022)
“And” between values parts separate entries of the source, which are not always exact repeats. Equal values may be shown once. The source made the active and inactive calls. How the calls were made is not given here.

Test system: rodent lifetime carcinogenesis bioassay, tumor incidence TD50
Experiment: chronic cancer bioassays in animals – CPDB, compiled studies (AID 1745844)

In the case of `CNNC`, the TD50 (hamster, strain Syrian Golden, females, in drinking water, site: blood vessels, lesion: angiosarcoma, dosed 67 weeks, study length 67 weeks) is reported as 0.156 mg/kg/day, the TD50 (hamster, strain Syrian Golden, females, in drinking water, site: cecum, lesion: adenocarcinoma, dosed 67 weeks, study length 67 weeks) is reported as 2.84 mg/kg/day and the TD50 (hamster, strain Syrian Golden, females, in drinking water, site: cecum, lesion: polypoid adenoma, dosed 67 weeks, study length 67 weeks) is reported as 2.08 mg/kg/day. The TD50 (hamster, strain Syrian Golden, females, in drinking water, site: cecum, lesion: several types, types named in the paper, dosed 67 weeks, study length 67 weeks) was 0.864 mg/kg/day, the TD50 (hamster, strain Syrian Golden, females, in drinking water, site: heart, lesion: angiosarcoma, dosed 67 weeks, study length 67 weeks) was 2.13 mg/kg/day and the TD50 (hamster, strain Syrian Golden, females, in drinking water, site: liver, lesion: angiosarcoma, dosed 67 weeks, study length 67 weeks) was 0.156 mg/kg/day. It also gave a TD50 (hamster, strain Syrian Golden, females, in drinking water, site: liver, lesion: hepatoma, dosed 67 weeks, study length 67 weeks) of 1.4 mg/kg/day, a TD50 (hamster, strain Syrian Golden, females, in drinking water, site: liver, lesion: several types, types named in the paper, dosed 67 weeks, study length 67 weeks) of 0.917 mg/kg/day and a TD50 (hamster, strain Syrian Golden, females, in drinking water, site: lung, lesion: angiosarcoma, dosed 67 weeks, study length 67 weeks) of 0.395 mg/kg/day. It also gave a TD50 (hamster, strain Syrian Golden, females, in drinking water, site: muscle, lesion: angiosarcoma, dosed 67 weeks, study length 67 weeks) of 1.03 mg/kg/day, a TD50 (hamster, strain Syrian Golden, females, in drinking water, site: pancreas, lesion: angiosarcoma, dosed 67 weeks, study length 67 weeks) of 18.4 mg/kg/day and a TD50 (hamster, strain Syrian Golden, males, in drinking water, site: blood vessels, lesion: angiosarcoma, dosed 71 weeks, study length 71 weeks) of 0.211 mg/kg/day. For the same compound, the TD50 (hamster, strain Syrian Golden, males, in drinking water, site: cecum, lesion: polypoid adenoma, dosed 71 weeks, study length 71 weeks) was 2.42 mg/kg/day, the TD50 (hamster, strain Syrian Golden, males, in drinking water, site: heart, lesion: angiosarcoma, dosed 71 weeks, study length 71 weeks) was 2.49 mg/kg/day and the TD50 (hamster, strain Syrian Golden, males, in drinking water, site: liver, lesion: angiosarcoma, dosed 71 weeks, study length 71 weeks) was 0.211 mg/kg/day. For the same compound, the TD50 (hamster, strain Syrian Golden, males, in drinking water, site: liver, lesion: several types, types named in the paper, dosed 71 weeks, study length 71 weeks) was 2.05 mg/kg/day, the TD50 (hamster, strain Syrian Golden, males, in drinking water, site: lung, lesion: angiosarcoma, dosed 71 weeks, study length 71 weeks) was 0.685 mg/kg/day and the TD50 (hamster, strain Syrian Golden, males, in drinking water, site: muscle, lesion: angiosarcoma, dosed 71 weeks, study length 71 weeks) was 1.36 mg/kg/day. For the same compound, the TD50 (hamster, strain Syrian Golden, males, in drinking water, site: pancreas, lesion: angiosarcoma, dosed 71 weeks, study length 71 weeks) was 18.6 mg/kg/day, the carcinogen call (mouse, strain Swiss albino, females, in drinking water, site: blood vessels, lesion: angiosarcoma, dosed 52 weeks, study length 52 weeks) was “positive” and the TD50 (mouse, strain Swiss albino, females, in drinking water, site: liver, lesion: hepatoma, dosed 52 weeks, study length 52 weeks) was 13.9 mg/kg/day. It also gave a TD50 (mouse, strain Swiss albino, females, in drinking water, site: lung, lesion: adenoma, dosed 52 weeks, study length 52 weeks) of 0.559 mg/kg/day, a TD50 (mouse, strain Swiss albino, males, in drinking water, site: blood vessels, lesion: angiosarcoma, dosed 52 weeks, study length 52 weeks) of 0.102 mg/kg/day and a TD50 (mouse, strain Swiss albino, males, in drinking water, site: fat, lesion: angiosarcoma, dosed 52 weeks, study length 52 weeks) of 0.215 mg/kg/day. For the same compound, the TD50 (mouse, strain Swiss albino, males, in drinking water, site: liver, lesion: angiosarcoma, dosed 52 weeks, study length 52 weeks) was 0.377 mg/kg/day, the TD50 (mouse, strain Swiss albino, males, in drinking water, site: lung, lesion: several types, types named in the paper, dosed 52 weeks, study length 52 weeks) was 1.81 mg/kg/day and the TD50 (mouse, strain Swiss albino, males, in drinking water, site: lymph node, lesion: angiosarcoma, dosed 52 weeks, study length 52 weeks) was 1.02 mg/kg/day. The TD50 (mouse, strain Swiss albino, males, in drinking water, site: muscle, lesion: angiosarcoma, dosed 52 weeks, study length 52 weeks) was 0.203 mg/kg/day, the TD50 (mouse, strain Swiss albino, males, in drinking water, site: paraepididymal tissue, lesion: angiosarcoma, dosed 52 weeks, study length 52 weeks) was 0.337 mg/kg/day and the TD50 (mouse, strain Swiss albino, males, in drinking water, site: pararenal tissue, lesion: angiosarcoma, dosed 52 weeks, study length 52 weeks) was 0.18 mg/kg/day. For the same compound, the TD50 (mouse, strain Swiss albino, males, in drinking water, site: subcutaneous tissue, lesion: angiosarcoma, dosed 52 weeks, study length 52 weeks) was 0.781 mg/kg/day.

In the case of `OCCO`, the carcinogen call (mouse, strain B6C3F1, females, in feed, site: any site (literature study), lesion: several types, types named in the paper, dosed 103 weeks, study length 105 weeks) is reported as “negative (inactive)”, the TD50 (mouse, strain B6C3F1, females, in feed, site: lung, lesion: alveolar/bronchiolar adenoma + alveolar/bronchiolar carcinoma, dosed 103 weeks, study length 105 weeks) is reported as 11300 mg/kg/day and the TD50 (mouse, strain B6C3F1, males, in feed, site: Harderian gland, lesion: adenoma + carcinoma, dosed 103 weeks, study length 104 weeks) is reported as 19200 mg/kg/day (inactive). The TD50 (mouse, strain B6C3F1, males, in feed, site: any site (literature study), lesion: several types, types named in the paper, dosed 103 weeks, study length 104 weeks) was 9980 mg/kg/day and the TD50 (mouse, strain B6C3F1, males, in feed, site: liver, lesion: hepatocellular adenoma + hepatocellular carcinoma + neoplastic nodule, dosed 103 weeks, study length 104 weeks) was 48100 mg/kg/day.

For `COc1ccc([N+](=O)[O-])cc1N=Nc1c(O)c(C(=O)Nc2cccc([N+](=O)[O-])c2)cc2ccccc12`, the TD50 (mouse, strain B6C3F1, females, in feed, site: any site (literature study), lesion: several types, types named in the paper, dosed 103 weeks, study length 103 weeks) was 29700 mg/kg/day (inactive), the TD50 (mouse, strain B6C3F1, females, in feed, site: lung, lesion: alveolar/bronchiolar adenoma + alveolar/bronchiolar carcinoma, dosed 103 weeks, study length 103 weeks) was 45200 mg/kg/day and the TD50 (mouse, strain B6C3F1, males, in feed, site: any site (literature study), lesion: several types, types named in the paper, dosed 103 weeks, study length 103 weeks) was 20200 mg/kg/day (inactive). The TD50 (mouse, strain B6C3F1, males, in feed, site: liver, lesion: hepatocellular adenoma + hepatocellular carcinoma + neoplastic nodule, dosed 103 weeks, study length 103 weeks) was 15100 mg/kg/day, the TD50 (mouse, strain B6C3F1, males, in feed, site: lung, lesion: alveolar/bronchiolar adenoma + alveolar/bronchiolar carcinoma, dosed 103 weeks, study length 103 weeks) was 112000 mg/kg/day and the carcinogen call (rat, strain Fischer 344, females, in feed, site: any site (literature study), lesion: several types, types named in the paper, dosed 103 weeks, study length 104 weeks) was “negative (inactive)”. For the same compound, the TD50 (rat, strain Fischer 344, males, in feed, site: kidney, lesion: tubule adenoma + tubule carcinoma, dosed 103 weeks, study length 104 weeks) was 19800 mg/kg/day and 16300 mg/kg/day.

For `O=C(O)c1cc(O)c(O)c(O)c1`, the carcinogen call (rat, strain F344/DuCrj, males, in feed, site: forestomach, lesion: squamous-cell carcinoma, dosed 60 weeks, study length 60 weeks) was “negative (inactive)” and the carcinogen call (rat, strain F344/DuCrj, males, in feed, site: forestomach, lesion: squamous-cell papilloma, dosed 60 weeks, study length 60 weeks) was “negative (inactive)”.
